Source: ChEMBL document CHEMBL1201862, “PubChem BioAssay data set” (2004)
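Method: 48-hour compound exposure of cells in 96-well plates, five concentrations, linear interpolation of endpoints. GI50 marks 50% less growth.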 The source made the active and inactive calls. Cut-off read from the data, not from the text of the source: active = GI50 up to about 1.1 µM and inactive = higher.

Columns and labels:
Assay in all cases: growth of human tumour cells (NCI), 48 h
NCI-H460 = test system: NCI-H460
OVCAR-8 = test system: OVCAR-8
MDA-MB-435 = test system: MDA-MB-435
HL-60 = test system: HL-60
SK-MEL-28 = test system: SK-MEL-28
TK-10 = test system: TK-10
SF-295 = test system: SF-295
SR = test system: SR
HCC 2998 = test system: HCC 2998
SK-OV-3 = test system: SK-OV-3
CAKI-1 = test system: CAKI-1
SNB-75 = test system: SNB-75
UACC-62 = test system: UACC-62
MOLT-4 = test system: MOLT-4
PC-3 = test system: PC-3
IGROV-1 = test system: IGROV-1
U-251 = test system: U-251
SN12C = test system: SN12C
SF-268 = test system: SF-268

Row | Structure (SMILES) | GI50 (NCI-H460) | GI50 (OVCAR-8) | GI50 (MDA-MB-435) | GI50 (HL-60) | GI50 (SK-MEL-28) | GI50 (TK-10) | GI50 (SF-295) | GI50 (SR) | GI50 (HCC 2998) | GI50 (SK-OV-3) | GI50 (CAKI-1) | GI50 (SNB-75) | GI50 (UACC-62) | GI50 (MOLT-4) | GI50 (PC-3) | GI50 (IGROV-1) | GI50 (U-251) | GI50 (SN12C) | GI50 (SF-268)
1 | COC(=O)C(Cc1c[nH]c2ccccc12)NC(=O)c1ccc(-c2ccc(Cl)cc2Cl)o1 (stereo not drawn) | 21.6 µM (inactive) | 54.1 µM (inactive) | 56 µM (inactive) | 10.5 µM (inactive) | 65.6 µM (inactive) | 63.5 µM (inactive) | 40.5 µM (inactive) | 26.1 µM (inactive) | 18.4 µM (inactive) | > 100 µM (inactive) | 42.7 µM (inactive) | 35.5 µM (inactive) | 43.3 µM (inactive) | 17.6 µM (inactive) | 7.96 µM (inactive) | 32.6 µM (inactive) | 42.7 µM (inactive) | 26.4 µM (inactive) | > 100 µM (inactive)
2 | CCOC(=O)CCC(NC(=O)c1ccc(OCc2ccc3nc(-c4ccccc4)c(Cl)nc3c2)cc1)C(=O)OCC (stereo not drawn) | > 31.6 µM (inactive) | 14.2 µM (inactive) | > 31.6 µM (inactive) | 7.29 µM (inactive) | > 31.6 µM (inactive) | 16.4 µM (inactive) | 22 µM (inactive) | 12.9 µM (inactive) | > 31.6 µM (inactive) | 52.1 µM (inactive) | > 69 µM (inactive) | 16.8 µM (inactive) | > 31.6 µM (inactive) | > 31.6 µM (inactive) | 7.4 µM (inactive) | 22.1 µM (inactive) | 18.4 µM (inactive) | > 100 µM (inactive) | 15 µM (inactive)
3 | O=C1Nc2nccnc2C(=O)N2CCC[C@@H]12 | > 100 µM (inactive) | > 100 µM (inactive) | > 100 µM (inactive) | > 100 µM (inactive) | > 100 µM (inactive) | > 100 µM (inactive) | > 100 µM (inactive) | > 100 µM (inactive) | > 100 µM (inactive) | > 100 µM (inactive) | > 100 µM (inactive) | > 100 µM (inactive) | > 100 µM (inactive) | > 100 µM (inactive) | > 100 µM (inactive) | > 100 µM (inactive) | > 100 µM (inactive) | > 100 µM (inactive) | > 100 µM (inactive)
4 | O=C1c2cccc3cccc(c23)C(=O)N1CCCNCCCNCCCCNCCCNCCCN1C(=O)c2cccc3cccc(c23)C1=O | 1.9 µM (inactive) | 4.93 µM (inactive) | 2.73 µM (inactive) | 0.27 µM (active) | 2.46 µM (inactive) | 11.6 µM (inactive) | 7.45 µM (inactive) | 0.929 µM (active) | 3.52 µM (inactive) | 12.9 µM (inactive) | 12.9 µM (inactive) | 2.52 µM (inactive) | 2.82 µM (inactive) | 0.376 µM (active) | 3.23 µM (inactive) | 1.96 µM (inactive) | 1.84 µM (inactive) | 3.44 µM (inactive) | 1.93 µM (inactive)
5 | Cc1nc(Nc2nc3ccccc3[nH]2)[nH]c(=O)c1CCO | 34.6 µM (inactive) | > 53.2 µM (inactive) | > 100 µM (inactive) | 75.9 µM (inactive) | > 100 µM (inactive) | 39.4 µM (inactive) | > 100 µM (inactive) | 30.9 µM (inactive) | > 100 µM (inactive) | 38.3 µM (inactive) | 53.5 µM (inactive) | > 100 µM (inactive) | 68.9 µM (inactive) | > 100 µM (inactive) | > 100 µM (inactive) | 12.3 µM (inactive) | 59.8 µM (inactive) | > 91.6 µM (inactive) | > 96.6 µM (inactive)
6 | CCCCCCCCCC(=O)N[C@@H](c1ccco1)[C@@H](O)C(=O)O[C@H]1C[C@@]2(O)[C@@H](OC(=O)c3ccccc3)[C@@H]3[C@]4(OC(C)=O)CO[C@@H]4C[C@H](O)[C@@]3(C)C(=O)[C@H](OC(C)=O)C(=C1C)C2(C)C | 0.0118 µM (active) | 0.0298 µM (active) | < 0.005 µM (active) | 0.00966 µM (active) | 0.0498 µM (active) | 0.468 µM (active) | 0.0389 µM (active) | 0.0101 µM (active) | 0.0703 µM (active) | 0.0269 µM (active) | 2.85 µM (inactive) | 0.989 µM (active) | 0.0467 µM (active) | 0.0124 µM (active) | 0.64 µM (active) | 0.0324 µM (active) | < 0.0241 µM (active) | 0.0407 µM (active) | 0.158 µM (active)
7 | CC(C)(C)NC(=S)N/N=C/c1ccccn1 | 0.968 µM (active) | 0.612 µM (active) | 3.61 µM (inactive) | < 0.01 µM (active) | 3.4 µM (inactive) | 14.1 µM (inactive) | 2.84 µM (inactive) | < 0.01 µM (active) | 6.84 µM (inactive) | 1.96 µM (inactive) | < 0.0118 µM (active) | > 100 µM (inactive) | 0.578 µM (active) | < 0.01 µM (active) | < 0.0164 µM (active) | 0.0281 µM (active) | 0.357 µM (active) | 3.16 µM (inactive) | 0.863 µM (active)
